The results in this text go back to patent US20240409558A1, “IRREVERSIBLE INHIBITORS OF KRAS” (BIOMEA FUSION, INC., priority 2021, published 2024).

Broadly, the IC50 is the midpoint of a concentration-inhibition curve.

One assay concerns human KRAS G12C mutated cell line MIA PaCa-2. Kind of assay: Inhibition of proliferation of MIA PaCa-2 cells (CellTiter-Glo, 7 day). The class given is cell-based. The following applies: 168 h, Table 1, CellTiter-Glo luminescence read on day 7, read-out: MIA PaCa-2 IC50. An excerpt: The present example evaluates the ability of compounds provided herein to inhibit proliferation of KRAS mutant cells.
The proliferation inhibitory effect was investigated in the human KRAS G12C mutated cell line MIA PaCa-2 (Yunis et al., 1977, Int. J. Cancer 19(1):128-135; ATCC catalog no. CRL-1420). Cells were maintained in RPMI-1640 medium (ThermoFisher catalog no. 61870036) supplemented with 10% of Heat Inactivated FBS (ThermoFisher catalog no. A31605) and 1% Pen-Strep (ThermoFisher catalog no. 10378016) and cultured at 37° C. in a humidified incubator with 5% CO2. Cell lines were grown by adhering to culture flasks, and the cells were maintained in a range 70%-80% confluency.
ATP is present in all metabolically active cells and is considered as a marker for cell viability and proliferation. Metabolic cell activity was determined using the CellTiter-Glo kit (Promega catalog no. G7572), an ATP monitoring system based on the production of luminescence by the reaction of ATP with added UltraGlo® recombinant luciferase (Kawano et al., 2016, PLOS One, 8; 11(7):e0158888), according to the supplier's experimental recommendations. The assay was based on a 96 well plate format.
Test compounds were dissolved at 10 mM in DMSO (Sigma catalog no. D8418; purity >99.9%) and stored at −20° C. Eight concentrations of test compound were assessed in duplicate in an individual test occasion in parallel in the selected cell lines. MRTX-849 and AMG-510 were used as reference compounds and tested in duplicate at eight concentrations. 100% of proliferation is represented by the untreated cells (0.2% DMSO).
On the day of the experiment (TO), cells were detached with TrypLE (ThermoFisher catalog no. 12604054) and quantified using the Vi-CELL XR Cell Viability (Beckman Coulter) analyzer and diluted with fresh medium to obtain the cell density of about 1000 cells per 200 μL medium. 200 μL of cell suspension were added into wells in the 96 well plate.
After 2 hours from seeding cells, compounds were added using a D300e compound dispenser (Tecan Trading AG) at desired concentrations with shaking between each compound dispensed. Cell plates containing 200 μL/well were incubated at 37° C. in a humidified incubator with 5% CO2.
On day T3, 150 μL of growth media per well were removed from plates containing the samples, 150 uL fresh growth media were added to each well, and fresh compounds were added using a D300e compound dispenser (Tecan Trading AG) at desired concentrations with shaking between each compound dispensed. Cell plates containing 200 uL/well were incubated at 37° C. in a humidified incubator with 5% CO2. On day T7 plates containing the samples were equilibrated at room temperature for approximately 15 min, and then 40 μL/well of the Promega CellTiterGlo® reagent was added. Contents were mixed for 30 minutes on an orbital shaker to induce cell lysis. Luminescence was read using a Synergy Neo 2 (Agilent Technologies.
Data was expressed as % of inhibition compared to the 0.2% DMSO negative control, and is calculated as follows: % inhibition=100−[(RLU sample)×100/(RLU controls*)], where * indicates the average for 0.2% DMSO. […]
On the day of the experiment (TO), cells were detached with TrypLE (ThermoFisher catalog no. 12604054), quantified using the Vi-CELL XR Cell Viability (Beckman Coulter) analyzer and resuspended in fresh medium at a cell density of about 1000 cells per 200 μL medium. 200 μL of cell suspension were added to each well of a 96 well plate.
Two hours after seeding cells, compounds were added at desired concentrations using a D300e compound dispenser (Tecan Trading AG) with shaking after each compound addition. Assay plates were incubated at 37° C. in a humidified incubator with 5% CO2.
On day 3 (T3) 150 μL of medium from assay plates were removed. 150 μL fresh medium and compounds were added at desired concentrations using a D300e compound dispenser (Tecan Trading AG) with shaking after each compound addition. […]
With `C=CC(=O)N1[C@@H]2CC[C@H]1CN(c1nc(OC[C@@]34CCCN3C[C@H](F)C4)nc3c(F)c(-c4cc(O)cc(Cl)c4C4CC4)ccc13)C2` [Compound 1, 1-((1R,5S)-3-(7-(3-chloro-2-cyclopropyl-5-hydroxyphenyl)-8-fluoro-2-(((2R,7aS)-2-fluorotetrahydro-1H-pyrrolizin-7a(5H)-yl)methoxy)quinazolin-4-yl)-3,8-diazabicyclo[3.2.1]octan-8-yl)prop-2-en-1-one], the IC50 is 0.000742 µM.

Staying with this assay, now noted: 168 h, Table 3, 7 day, mean, read-out: MIA PaCa-2 IC50 (μM) 7 day Mean.
Turning to `C=CC(=O)N1CCN(c2nc(OC[C@@]34CCCN3C[C@H](F)C4)nc3cc(-c4cc(O)cc(Cl)c4C4CC4)c(F)cc23)CC12CC2` [Compound 317, 1-[7-[7-(3-chloro-2-cyclopropyl-5-hydroxy-phenyl)-6-fluoro-2-[[(2R,8S)-2-fluoro-1,2,3,5,6,7-hexahydropyrrolizin-8-yl]methoxy]quinazolin-4-yl]-4,7-diazaspiro[2.5]octan-4-yl]prop-2-en-1-one], the IC50 was above 1 µM.

Consider `C=C(F)C(=O)N1C2CCC1CN(c1nc(OC[C@@]34CCCN3C[C@H](F)C4)nc3c(F)c(-c4cc(O)cc(Cl)c4C4CC4)ccc13)C2` [Compound 307, 1-[3-[7-(3-chloro-2-cyclopropyl-5-hydroxy-phenyl)-8-fluoro-2-[[(2R,8S)-2-fluoro-1,2,3,5,6,7-hexahydropyrrolizin-8-yl]methoxy]quinazolin-4-yl]-3,8-diazabicyclo[3.2.1]octan-8-yl]-2-fluoro-prop-2-en-1-one], for which the IC50 is 0.126 µM.

The same assay, now with this note: 168 h, Table 4, 7 day, mean, read-out: MIA PaCa-2 IC50 (μM) 7 day Mean.
As for `Oc1cccc(Cl)c1-c1cc(F)c2c(N3CCNCC34CC4)nc(OC[C@@]34CCCN3C[C@H](F)C4)nc2c1` [Compound 419, 3-chloro-2-[4-(4,7-diazaspiro[2.5]octan-4-yl)-5-fluoro-2-[[(2R,8S)-2-fluoro-1,2,3,5,6,7-hexahydropyrrolizin-8-yl]methoxy]quinazolin-7-yl]phenol], the concentration for half-maximal inhibition (IC50) was above 1 µM.

Take `Oc1cc(Cl)c(C2CC2)c(-c2ncc3c(N4CCC5(CC4)CO5)nc(OC[C@@]45CCCN4C[C@H](F)C5)nc3c2F)c1` [Compound 437, 3-chloro-4-cyclopropyl-5-[8-fluoro-2-[[(2R,8S)-2-fluoro-1,2,3,5,6,7-hexahydropyrrolizin-8-yl]methoxy]-4-(1-oxa-6-azaspiro[2.5]octan-6-yl)pyrido[4,3-d]pyrimidin-7-yl]phenol]: the half-maximal inhibitory concentration (IC50) is above 1 µM.

For the molecule `Oc1cc(Cl)c(C2CC2)c(-c2ccc3c(N4C[C@H]5C[C@@H]4CN5)nc(OC[C@@]45CCCN4C[C@H](F)C5)nc3c2F)c1` [Compound 424, 3-chloro-4-cyclopropyl-5-[4-[(1R,4R)-2,5-diazabicyclo[2.2.1]heptan-2-y1]-8-fluoro-2-[[(2R,8S)-2-fluoro-1,2,3,5,6,7-hexahydropyrrolizin-8-yl]methoxy]quinazolin-7-yl]phenol], the IC50 is above 1 µM.

For `F[C@H]1CN2CCC[C@@]2(COc2cc(N3C[C@H]4C[C@@H]3CN4)c3ncc(-c4cccc5cccc(Cl)c45)cc3n2)C1` [Compound 422, 7-(8-chloro-1-naphthyl)-4-[(1R,4R)-2,5-diazabicyclo[2.2.1]heptan-2-y1]-2-[[(2R,8S)-2-fluoro-1,2,3,5,6,7-hexahydropyrrolizin-8-yl]methoxy]-1,5-naphthyridine], the concentration for half-maximal inhibition (IC50) is above 1 µM.

On to `CCC1(c2nc(OC[C@@]34CCCN3C[C@H](F)C4)nc3c(F)c(-c4cc(O)cc(Cl)c4C4CC4)ncc23)CCNCC1` [Compound 441], for which the IC50 is above 1 µM.

For the molecule `N#CC1CNCCN1c1nc(OC[C@@]23CCCN2C[C@H](F)C3)nc2cc(-c3cc(O)cc(Cl)c3C3CC3)cnc12` (stereo partly drawn) [Compound 416, 1-[7-(3-chloro-2-cyclopropyl-5-hydroxy-phenyl)-2-[[(2R,8S)-2-fluoro-1,2,3,5,6,7-hexahydropyrrolizin-8-yl]methoxy]pyrido[3,2-d]pyrimidin-4-yl]piperazine-2-carbonitrile], the IC50 was above 1 µM.
